# Measurements published in US20150094376A1, “Hexamethonium Reverses the Lethal Cardiopulmonary Damages in a Rat Model of Brain Stem Lesions Mimicking Fatal Enterovirus 71 Encephalitis” (Kaohsiung Veterans General Hospital, priority 2013, published 2015).
# Columns and labels:
# Assay type in all cases: in vivo, Sprague Dawley rats
# [1] = system: rats with bilateral 6-OHDA lesions of the NTS; experiment: Echocardiography in rats with 6-OHDA lesions
# Description: After the first set of the rat model was established, the second set of experiments intended to determine some time points for analysis. Rats were anesthetized with pentobarbital (50 mg/kg, ip) before NTS lesion. After surgery (lesion of the NTS), the wounds were closed and the rats were removed from the stereotaxic frame for further observation. Each rat was placed in a small cage and woken within 30 minutes for free activity. The rat were respectively sacrificed (intervention and control group, n=6 in each group) at different time point (0, 3 and 6 hours) for analyzing histopathology and biochemistry from blood, brain, heart and lung. Before sacrificing, echocardiography was performed to exanimate left ventricular (LV) wall thickness and cardiac function.
# (§1) The third set of experiments (intervention-treatment and control-treatment groups) was to infuse the ganglionic blocker (hexamethonium (Sigma), 25 mg/kg, iv) via the femoral vein at the time point of 10 minutes after NTS lesion to record BP and HR in trend (n=6 in each group) and the rats respectively were sacrificed at the time point (0, 3, 6 and 12 hours) for analyzing the parameters as discussed in the second set of experiments.
# Rats were immobilized and shaved on the chest for echocardiographic examinations using commercially available equipment (Vivid 7, GE Ultrasound, Horten, Norway) equipped with 10-MHz phased array transducers. All the records were stored digitally as two-dimensional cine loops and analyzed with customized dedicated research software (Echo PAC, GE Ultrasound, Horten, Norway). Two-dimensionally guided M-mode recordings were obtained from the parasternal short-axis view at a depth of 2 cm at the level of the papillary muscles. M-Mode tracing were recorded at a speed of 200 mm/s. The measurements were made using the method of the American Society of Echocardiography and the parameters were measured digitally on the M-mode tracing and averaged from 5 consecutive cardiac cycles.
# [2] = system: control rats with NTS microinjected with vehicle; experiment: BP and HR recording in control-treatment group (vehicle injected into NTS, then hexamethonium); conditions: no 6-OHDA lesion; hexamethonium 25 mg/kg iv
# Source text: Three sets of experiments were designed according to the three specific aims mentioned above. The first set of experiments was to establish a rat model by micro-injecting 6-hydroxydopamin (6-OHDA) into NTS leading to acute fulminating hypertension and pulmonary hemorrhagic edema. We recorded the blood pressure (BP) and heart rate (HR) in trend. Two groups of rats (n=6 in each group) were studied: 1) an intervention group in which 6-OHDA (Sigma, […]) dissolved in vehicle (0.8% ascorbic acid in saline) was injected into NTS bilaterally; and 2) a control group that received injections of equal volumes of vehicle alone. Each group of rats was anesthetized with urethane (1 g/kg, i.p.) and connected to oscillator circuits for BP and HR recording via […]. For microinjections into the NTS, the rats were anesthetized and placed in a stereotaxic frame; then the dorsal surface of the medulla was exposed. A glass cannula was filled with L-glutamate (0.154 mmol/60 n1) to functionally identify the NTS. […]
# [3] = system: rats with bilateral 6-OHDA lesions of the NTS; experiment: Pulmonary edema index and gross lung specimens in rats with 6-OHDA lesions; conditions: n=6 per group
# Description: as §1
# After the blood-sampled rats were sacrificed, the chest each of the rats was opened to remove the lung and the heart, and then the skull was opened for NTS tissue. To estimate the liquid accumulation in the lungs, both lungs were weighted, then dried in an oven at 80° C. for two days and weighted as dry lung weight. The total weight/body multiplies by 100 and wet-to-dry lung weight ratio were calculated for indicating the degree of pulmonary edema.
# [4] = system: rats with bilateral 6-OHDA lesions of the NTS; experiment: BP and HR recording and survival in rats with 6-OHDA lesions of the NTS (rat model mimicking fatal EV 71 encephalitis); conditions: for survival time after NTS lesion: n=6, 6-OHDA rats died within 7 hours
# Source text: Three sets of experiments were designed according to the three specific aims mentioned above. The first set of experiments was to establish a rat model by micro-injecting 6-hydroxydopamin (6-OHDA) into NTS leading to acute fulminating hypertension and pulmonary hemorrhagic edema. We recorded the blood pressure (BP) and heart rate (HR) in trend. Two groups of rats (n=6 in each group) were studied: 1) an intervention group in which 6-OHDA (Sigma, […]) dissolved in vehicle (0.8% ascorbic acid in saline) was injected into NTS bilaterally; and 2) a control group that received injections of equal volumes of vehicle alone. Each group of rats was anesthetized with urethane (1 g/kg, i.p.) and connected to oscillator circuits for BP and HR recording via […]. For microinjections into the NTS, the rats were anesthetized and placed in a stereotaxic frame; then the dorsal surface of the medulla was exposed. A glass cannula was filled with L-glutamate (0.154 mmol/60 n1) to functionally identify the NTS.
# as §1
# [5] = system: rats with bilateral 6-OHDA lesions of the NTS; experiment: Lung histopathology and immunohistochemistry (H&E, PMN, connexin 43) in rats with 6-OHDA lesions; conditions: n=6 per group
# Description: as §1
# (§2) For hematoxylin and eosin staining, the rat brain, heart, and lungs were excised immediately after blood sampling. They were rinsed with saline, free from blood or fatty tissue, lightly blotted with filter paper, and then were placed in 10% formalin for five days and blocked, embedded in paraffin, cut in 4 μm sections, and stained with hematoxylin and eosin.
# (§3) Immunohistochemical analysis (troponin T and brain natriuretic peptide in heart tissue, neutrophil cell in lung tissue, and connexin 43 assays in the lung and heart tissues) was performed on the sections after the paraffin was melted in an oven at 70° C. for one hour. The sections were deparaffinized, microwaved in citric buffer (10 mmol/L, pH 6.0), blocked in 3% goat serum, and incubated with anti-cardiac troponin T antibody (1:200; Abeam), anti-myosin VIIa antibody (1:200; Abeam), anti-brain natriuretic peptide polyclonal antibody (1:1000; Thermo Fisher Scientific Inc.), anti-neutrophil elastase antibody (1:400; Abeam), and anti-connexin 43/GJA1 antibody (1:200; Abcam) overnight at 4° C. Next, the sections were incubated with biotinylated secondary antibodies (1:200; Vector Laboratories, Burlingame, Calif., USA) for one hour and in AB complex (1:100) for 30 minutes at room temperature. The sections were visualized with a DAB substrate kit (Vector Laboratories) and counterstained with hematoxylin. The sections were then photographed with a microscope mounted with a charge-coupled device camera.
# [6] = system: rats with bilateral 6-OHDA lesions of the NTS; experiment: Heart histopathology and immunohistochemistry (H&E, troponin T, BNP, connexin 43) in rats with 6-OHDA lesions
# Description: as §1, §2, §3
# [7] = system: rats with bilateral 6-OHDA lesions of the NTS; experiment: Epinephrine and norepinephrine levels by enzyme immunoassay in rats with 6-OHDA lesions
# Description: as §1
# All blood samples were collected into micro-tubes and placed immediately into to an ice bath. The samples, then, were centrifuged at 10000 rpm for 20 minutes at 4° C. Aliquots of plasma were removed and stored at −80° C. until assayed for content of epinephrine and norepinephrine within four weeks utilizing enzyme immunoassay for the high-sensitive quantitative determination by Labor Diagnostika Nord-Medicrop Inc.
structure (smiles),measurement,setting,value
C[N+](C)(C)CCCCCC[N+](C)(C)C [hexamethonium],acute increase in fraction shortening,[1]; 3 hours,attenuated or reversed
same,decrease in the LV internal dimension in diastole and systole,[1]; 3 hours and 6 hours,reversed or attenuated
same,acute decrease in cardiac output after 6-OHDA lesions,"[1]; 3 hours and 6 hours, FIG. 2E",prevented
same,acute increase in ejection fraction,"[1]; 3 hours, FIG. 2F",attenuated or reversed
same,acute increase in LV wall thickness,"[1]; 3 hours, FIGS. 2G and 2H",attenuated or reversed
same,HR in control-treatment group,[2],no associated significant change in HR
same,mean blood pressure in control-treatment group,[2],significantly decreased
same,mild and severe lung congestion (gross lungs),"[3]; 3 hours and 6 hours, FIG. 4A",prevented
same,increased wet-to-dry lung weight ratio (W/D),"[3]; 6 hours, FIG. 4B",reversed
same,increased total lung/body weight (BW),"[3]; 6 hours, FIG. 4C",reversed
same,HR at 3 hours,"[4]; 25 mg/kg iv 10 minutes after 6-OHDA lesion, 3 hours",no significant reduction in HR
same,HR immediately after hexamethonium,"[4]; 25 mg/kg iv 10 minutes after 6-OHDA lesion, immediately",a reduction in HR
same,acute hypertension induced by 6-OHDA lesions,"[4]; hexamethonium 25 mg/kg iv 10 minutes after NTS lesion, FIG. 1B",reversed
same,acute high rise in mean blood pressure (MBP) caused by 6-OHDA lesions,"[4]; hexamethonium 25 mg/kg iv 10 minutes after NTS lesion, FIG. 1C, n=6 per group",significantly reversed
same,survival time after NTS lesion,[4]; hexamethonium 25 mg/kg iv 10 minutes after NTS lesion,at least 14 hours
same,survival time after NTS lesion,"[4]; hexamethonium 25 mg/kg iv 10 minutes after NTS lesion, listed as Hexamethonium",more than 14 hours
same,labored breathing,"[4]; hexamethonium 25 mg/kg iv 10 minutes after NTS lesion, up to 14 hours post NTS lesion",did not exhibit significantly labored breathing until 14 hours
same,increased infiltrates of red blood cells and formation of hyaline membrane in lung (H&E),"[5]; 3 hours and 6 hours, FIG. 5A",prevented
same,increased expressions of connexin 43 in lung,"[5]; 3 hours and 6 hours, FIG. 5C",attenuated
same,increased infiltrates of PMN in lung,"[5]; 6 hours, FIG. 5B",reduced
same,increase of irregular wavy fibers with increased eosinophilic staining of the cytoplasm and contraction bands necrosis in heart (H&E),"[6]; 3 hours and 6 hours, FIG. 3A, n=6 per group",prevented
same,increased BNP staining in the cytoplasm (heart),"[6]; 3 hours and 6 hours, FIG. 3C, n=6 per group",reduced
same,increased and strong expressions of connexin 43 in heart muscle,"[6]; 3 hours and 6 hours, FIG. 3D, n=6 per group",reduced
same,increased expression of cardiac troponin T,"[6]; 6 hours, FIGS. 3B and 3E, n=4 per group",reduced
same,"level of epinephrine at 6 hours, 6-OHDA vs 6-OHDA+Hexamethonium",[7]; 6 hours,no significant differences
same,"level of norepinephrine at 6 hours, 6-OHDA vs 6-OHDA+Hexamethonium",[7]; 6 hours,no significant differences
same,acute high rise of epinephrine serum level post 6-OHDA lesions,"[7]; within 3 hours after hexamethonium treatment, FIG. 1D, n=6 per group",significantly lowered
same,acute high rise of norepinephrine serum level post 6-OHDA lesions,"[7]; within 3 hours after hexamethonium treatment, FIG. 1E, n=6 per group",significantly lowered
